Test results published in ChEMBL document CHEMBL5723582, “Data for DCP probe T-10430” (2024).

Columns and labels:
Details in all cases: Compound concentration 1.0 uM
[1] = molecular target: Muscarinic acetylcholine receptor M4 (Homo sapiens) (UniProt P08173); assay: RLU of CHRM4 at 1.0 µM in the […] PRESTO-Tango GPCRome screen
[2] = molecular target: C-X-C chemokine receptor type 2 (Homo sapiens) (UniProt P25025); assay: RLU of CXCR2 at 1.0 µM in the […] PRESTO-Tango GPCRome screen
[3] = molecular target: 5-hydroxytryptamine receptor 1F (Homo sapiens) (UniProt P30939); assay: RLU of HTR1F at 1.0 µM in the […] PRESTO-Tango GPCRome screen
[4] = molecular target: Mas-related G-protein coupled receptor member G (Homo sapiens) (UniProt Q86SM5); assay: RLU of MRGPRG at 1.0 µM in the […] PRESTO-Tango GPCRome screen
Chain of Mas-related G-protein coupled receptor member G (Homo sapiens) (Q86SM5 whole entry): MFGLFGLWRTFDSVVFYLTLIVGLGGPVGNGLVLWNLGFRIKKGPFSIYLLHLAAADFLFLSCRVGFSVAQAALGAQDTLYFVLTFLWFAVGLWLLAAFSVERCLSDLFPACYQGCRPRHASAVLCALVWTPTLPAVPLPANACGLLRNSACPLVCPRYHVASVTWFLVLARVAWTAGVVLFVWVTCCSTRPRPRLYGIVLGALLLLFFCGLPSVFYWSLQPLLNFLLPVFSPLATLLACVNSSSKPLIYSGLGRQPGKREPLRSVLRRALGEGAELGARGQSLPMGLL

[5] = molecular target: Melatonin-related receptor (Homo sapiens) (UniProt Q13585); assay: RLU of GPR50 at 1.0 µM in the […] PRESTO-Tango GPCRome screen
[6] = molecular target: Mu-type opioid receptor (Homo sapiens) (UniProt P35372); assay: RLU of OPRM1 at 1.0 µM in the […] PRESTO-Tango GPCRome screen
[7] = molecular target: Uracil nucleotide/cysteinyl leukotriene receptor (Homo sapiens) (UniProt Q13304); assay: RLU of GPR17 at 1.0 µM in the […] PRESTO-Tango GPCRome screen
[8] = molecular target: S-geranylgeranyl-glutathione receptor P2RY8 (Homo sapiens) (UniProt Q86VZ1); assay: RLU of P2RY8 at 1.0 µM in the […] PRESTO-Tango GPCRome screen
Chain of S-geranylgeranyl-glutathione receptor P2RY8 (Homo sapiens) (Q86VZ1 whole entry): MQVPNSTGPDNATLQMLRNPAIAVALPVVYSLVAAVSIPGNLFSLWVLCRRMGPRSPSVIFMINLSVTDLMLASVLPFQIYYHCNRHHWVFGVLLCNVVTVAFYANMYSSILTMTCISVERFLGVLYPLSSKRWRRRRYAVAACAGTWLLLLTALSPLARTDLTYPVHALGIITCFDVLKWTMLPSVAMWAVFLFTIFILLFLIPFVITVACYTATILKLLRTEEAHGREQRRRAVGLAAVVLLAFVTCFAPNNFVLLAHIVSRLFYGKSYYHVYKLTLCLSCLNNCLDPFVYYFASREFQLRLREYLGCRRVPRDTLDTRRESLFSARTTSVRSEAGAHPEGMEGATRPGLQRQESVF

[9] = molecular target: Probable G-protein coupled receptor 156 (Homo sapiens) (UniProt Q8NFN8); assay: RLU of GPR156 at 1.0 µM in the […] PRESTO-Tango GPCRome screen
[10] = molecular target: Cholecystokinin receptor type A (Homo sapiens) (UniProt P32238); assay: RLU of CCKAR at 1.0 µM in the […] PRESTO-Tango GPCRome screen
[11] = molecular target: Neuropeptide Y receptor type 2 (Homo sapiens) (UniProt P49146); assay: RLU of NPY2R at 1.0 µM in the […] PRESTO-Tango GPCRome screen
[12] = molecular target: Neuropeptide Y receptor type 4 (Homo sapiens) (UniProt P50391); assay: RLU of NPY4R at 1.0 µM in the […] PRESTO-Tango GPCRome screen
[13] = molecular target: Mas-related G-protein coupled receptor MRG (Homo sapiens) (UniProt P35410); assay: RLU of MAS1L at 1.0 µM in the […] PRESTO-Tango GPCRome screen
[14] = molecular target: Extracellular calcium-sensing receptor (Homo sapiens) (UniProt P41180); assay: RLU of CASR at 1.0 µM in the […] PRESTO-Tango GPCRome screen
[15] = molecular target: P2Y purinoceptor 4 (Homo sapiens) (UniProt P51582); assay: RLU of P2RY4 at 1.0 µM in the […] PRESTO-Tango GPCRome screen
[16] = molecular target: Proteinase-activated receptor 4 (Homo sapiens) (UniProt Q96RI0); assay: RLU of F2RL3 at 1.0 µM in the […] PRESTO-Tango GPCRome screen
[17] = molecular target: Probable G-protein coupled receptor 34 (Homo sapiens) (UniProt Q9UPC5); assay: RLU of GPR34 at 1.0 µM in the […] PRESTO-Tango GPCRome screen
Chain of Probable G-protein coupled receptor 34 (Homo sapiens) (Q9UPC5 whole entry): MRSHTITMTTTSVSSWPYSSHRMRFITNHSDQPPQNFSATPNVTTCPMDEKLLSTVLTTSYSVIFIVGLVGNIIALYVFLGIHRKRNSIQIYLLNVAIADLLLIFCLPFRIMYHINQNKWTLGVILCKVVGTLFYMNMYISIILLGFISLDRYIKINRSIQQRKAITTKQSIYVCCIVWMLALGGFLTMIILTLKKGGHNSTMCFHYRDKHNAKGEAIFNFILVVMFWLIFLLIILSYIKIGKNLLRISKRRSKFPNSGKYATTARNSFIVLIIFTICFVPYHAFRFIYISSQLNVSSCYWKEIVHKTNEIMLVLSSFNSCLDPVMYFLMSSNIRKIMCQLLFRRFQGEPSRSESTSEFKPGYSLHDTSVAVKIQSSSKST

[18] = molecular target: Lysophosphatidic acid receptor 2 (Homo sapiens) (UniProt Q9HBW0); assay: RLU of LPAR2 at 1.0 µM in the […] PRESTO-Tango GPCRome screen
[19] = molecular target: Orexin receptor type 1 (Homo sapiens) (UniProt O43613); assay: RLU of HCTR1 at 1.0 µM in the Aequorin PRESTO-Tango GPCRome screen
[20] = molecular target: Muscarinic acetylcholine receptor M1 (Homo sapiens) (UniProt P11229); assay: RLU of CHRM1 at 1.0 µM in the […] PRESTO-Tango GPCRome screen
Chain of Muscarinic acetylcholine receptor M1 (Homo sapiens) (P11229 whole entry): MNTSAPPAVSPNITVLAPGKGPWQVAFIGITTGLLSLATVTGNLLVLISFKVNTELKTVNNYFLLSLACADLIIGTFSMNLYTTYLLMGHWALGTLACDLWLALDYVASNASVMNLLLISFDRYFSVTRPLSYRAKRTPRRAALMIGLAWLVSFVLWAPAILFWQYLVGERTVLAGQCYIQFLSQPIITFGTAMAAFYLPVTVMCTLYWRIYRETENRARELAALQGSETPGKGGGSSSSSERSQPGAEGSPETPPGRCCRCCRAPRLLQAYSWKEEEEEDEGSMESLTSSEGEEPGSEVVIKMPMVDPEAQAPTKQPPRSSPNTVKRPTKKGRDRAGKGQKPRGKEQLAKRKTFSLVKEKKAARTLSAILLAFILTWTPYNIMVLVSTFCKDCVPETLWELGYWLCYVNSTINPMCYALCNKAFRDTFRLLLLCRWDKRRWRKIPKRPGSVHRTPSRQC

[21] = molecular target: G-protein coupled receptor 68 (Homo sapiens) (UniProt Q15743); assay: RLU of GPR68 at 1.0 µM in the […] PRESTO-Tango GPCRome screen
Chain of G-protein coupled receptor 68 (Homo sapiens) (Q15743 whole entry): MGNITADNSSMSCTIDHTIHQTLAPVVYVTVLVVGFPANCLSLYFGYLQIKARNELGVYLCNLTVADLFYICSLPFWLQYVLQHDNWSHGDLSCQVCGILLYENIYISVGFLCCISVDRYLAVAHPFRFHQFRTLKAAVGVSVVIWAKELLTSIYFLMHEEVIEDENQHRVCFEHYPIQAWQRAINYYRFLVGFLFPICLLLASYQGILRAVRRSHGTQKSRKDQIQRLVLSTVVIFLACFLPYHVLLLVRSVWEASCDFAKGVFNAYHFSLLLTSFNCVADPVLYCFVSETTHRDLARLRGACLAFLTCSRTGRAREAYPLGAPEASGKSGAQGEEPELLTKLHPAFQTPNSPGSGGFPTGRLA

[22] = molecular target: G-protein coupled receptor 182 (Homo sapiens) (UniProt O15218); assay: RLU of GPR182 at 1.0 µM in the […] PRESTO-Tango GPCRome screen
Chain of G-protein coupled receptor 182 (Homo sapiens) (O15218 whole entry): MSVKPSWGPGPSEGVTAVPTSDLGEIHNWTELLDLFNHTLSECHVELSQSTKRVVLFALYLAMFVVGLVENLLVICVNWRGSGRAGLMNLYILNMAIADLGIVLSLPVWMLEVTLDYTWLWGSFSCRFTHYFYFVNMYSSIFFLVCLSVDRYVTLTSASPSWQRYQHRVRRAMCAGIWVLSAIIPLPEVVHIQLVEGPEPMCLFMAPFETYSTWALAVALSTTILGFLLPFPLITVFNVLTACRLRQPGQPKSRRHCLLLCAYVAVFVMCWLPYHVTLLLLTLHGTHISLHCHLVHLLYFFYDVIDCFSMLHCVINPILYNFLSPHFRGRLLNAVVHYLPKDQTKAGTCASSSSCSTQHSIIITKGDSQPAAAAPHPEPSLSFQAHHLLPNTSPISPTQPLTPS

[23] = molecular target: Thromboxane A2 receptor (Homo sapiens) (UniProt P21731); assay: RLU of TBXA2R at 1.0 µM in the […] PRESTO-Tango GPCRome screen
Chain of Thromboxane A2 receptor (Homo sapiens) (P21731 whole entry): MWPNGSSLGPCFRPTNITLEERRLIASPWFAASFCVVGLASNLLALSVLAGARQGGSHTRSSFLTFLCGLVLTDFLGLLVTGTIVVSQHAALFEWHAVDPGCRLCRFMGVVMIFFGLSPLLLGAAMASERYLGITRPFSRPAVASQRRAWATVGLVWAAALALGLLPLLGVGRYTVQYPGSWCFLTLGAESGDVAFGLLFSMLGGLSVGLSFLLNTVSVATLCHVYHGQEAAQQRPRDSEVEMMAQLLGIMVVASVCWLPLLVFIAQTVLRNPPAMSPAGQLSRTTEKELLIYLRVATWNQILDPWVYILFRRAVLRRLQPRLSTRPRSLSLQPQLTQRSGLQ

[24] = molecular target: G-protein coupled receptor 87 (Homo sapiens) (UniProt Q9BY21); assay: RLU of GPR87 at 1.0 µM in the […] PRESTO-Tango GPCRome screen
[25] = molecular target: Probable G-protein coupled receptor 25 (Homo sapiens) (UniProt O00155); assay: RLU of GPR25 at 1.0 µM in the […] PRESTO-Tango GPCRome screen
Chain of Probable G-protein coupled receptor 25 (Homo sapiens) (O00155 whole entry): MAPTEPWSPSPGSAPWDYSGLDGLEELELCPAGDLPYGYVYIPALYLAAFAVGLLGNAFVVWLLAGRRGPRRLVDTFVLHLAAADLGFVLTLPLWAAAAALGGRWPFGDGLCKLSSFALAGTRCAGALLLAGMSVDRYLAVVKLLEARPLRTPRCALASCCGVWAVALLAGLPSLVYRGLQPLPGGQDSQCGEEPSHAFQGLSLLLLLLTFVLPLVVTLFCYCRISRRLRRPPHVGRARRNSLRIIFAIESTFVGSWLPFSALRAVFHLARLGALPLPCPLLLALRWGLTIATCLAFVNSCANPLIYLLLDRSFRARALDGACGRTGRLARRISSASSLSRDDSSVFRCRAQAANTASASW

[26] = molecular target: C-C chemokine receptor type 3 (Homo sapiens) (UniProt P51677); assay: RLU of CCR3 at 1.0 µM in the […] PRESTO-Tango GPCRome screen
[27] = molecular target: P2Y purinoceptor 1 (Homo sapiens) (UniProt P47900); assay: RLU of P2RY1 at 1.0 µM in the […] PRESTO-Tango GPCRome screen
[28] = molecular target: G-protein coupled receptor family C group 6 member A (Homo sapiens) (UniProt Q5T6X5); assay: RLU of GPRC6A at 1.0 µM in the […] PRESTO-Tango GPCRome screen
[29] = molecular target: 2-oxoglutarate receptor 1 (Homo sapiens) (UniProt Q96P68); assay: RLU of OXGR1 at 1.0 µM in the […] PRESTO-Tango GPCRome screen
[30] = molecular target: Metabotropic glutamate receptor 8 (Homo sapiens) (UniProt O00222); assay: RLU of GRM8 at 1.0 µM in the Aequorin PRESTO-Tango GPCRome screen
Chain of Metabotropic glutamate receptor 8 (Homo sapiens) (O00222 whole entry): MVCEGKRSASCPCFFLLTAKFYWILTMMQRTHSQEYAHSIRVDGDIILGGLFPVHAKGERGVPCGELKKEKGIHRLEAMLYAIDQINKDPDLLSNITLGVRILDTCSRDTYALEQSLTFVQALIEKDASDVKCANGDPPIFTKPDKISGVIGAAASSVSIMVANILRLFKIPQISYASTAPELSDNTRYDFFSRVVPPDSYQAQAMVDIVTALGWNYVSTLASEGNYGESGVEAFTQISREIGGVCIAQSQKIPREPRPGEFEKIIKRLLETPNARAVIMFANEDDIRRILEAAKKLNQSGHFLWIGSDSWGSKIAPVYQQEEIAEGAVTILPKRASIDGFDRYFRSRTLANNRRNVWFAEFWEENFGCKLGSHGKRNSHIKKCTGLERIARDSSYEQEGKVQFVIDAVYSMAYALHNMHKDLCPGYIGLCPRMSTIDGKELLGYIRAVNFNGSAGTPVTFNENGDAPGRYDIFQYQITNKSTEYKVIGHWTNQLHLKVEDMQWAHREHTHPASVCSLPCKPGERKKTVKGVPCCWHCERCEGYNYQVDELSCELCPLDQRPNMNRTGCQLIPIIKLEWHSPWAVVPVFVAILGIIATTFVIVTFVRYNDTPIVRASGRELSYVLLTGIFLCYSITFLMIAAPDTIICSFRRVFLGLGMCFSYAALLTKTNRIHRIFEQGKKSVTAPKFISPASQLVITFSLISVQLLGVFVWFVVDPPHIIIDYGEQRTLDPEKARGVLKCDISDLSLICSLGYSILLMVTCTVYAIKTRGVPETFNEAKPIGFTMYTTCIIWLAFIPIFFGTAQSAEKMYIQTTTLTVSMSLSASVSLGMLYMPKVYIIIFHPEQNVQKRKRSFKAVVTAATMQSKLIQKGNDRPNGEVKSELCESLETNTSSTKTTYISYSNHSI

[31] = molecular target: Metabotropic glutamate receptor 6 (Homo sapiens) (UniProt O15303); assay: RLU of GRM6 at 1.0 µM in the Aequorin PRESTO-Tango GPCRome screen
[32] = molecular target: D(3) dopamine receptor (Homo sapiens) (UniProt P35462); assay: RLU of DRD3 at 1.0 µM in the […] PRESTO-Tango GPCRome screen
Chain of D(3) dopamine receptor (Homo sapiens) (P35462 whole entry): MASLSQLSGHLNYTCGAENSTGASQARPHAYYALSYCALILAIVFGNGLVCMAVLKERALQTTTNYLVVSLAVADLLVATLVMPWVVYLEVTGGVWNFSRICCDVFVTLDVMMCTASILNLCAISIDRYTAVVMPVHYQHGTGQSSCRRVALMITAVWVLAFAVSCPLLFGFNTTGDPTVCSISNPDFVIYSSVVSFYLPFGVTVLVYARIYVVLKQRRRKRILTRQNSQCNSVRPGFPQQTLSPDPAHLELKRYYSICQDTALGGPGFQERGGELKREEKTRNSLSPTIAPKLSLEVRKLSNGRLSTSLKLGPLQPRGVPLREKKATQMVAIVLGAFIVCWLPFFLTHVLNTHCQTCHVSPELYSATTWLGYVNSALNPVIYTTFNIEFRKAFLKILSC

[33] = molecular target: Neuropeptides B/W receptor type 1 (Homo sapiens) (UniProt P48145); assay: RLU of NPBW1 at 1.0 µM in the […] PRESTO-Tango GPCRome screen
Chain of Neuropeptides B/W receptor type 1 (Homo sapiens) (P48145 whole entry): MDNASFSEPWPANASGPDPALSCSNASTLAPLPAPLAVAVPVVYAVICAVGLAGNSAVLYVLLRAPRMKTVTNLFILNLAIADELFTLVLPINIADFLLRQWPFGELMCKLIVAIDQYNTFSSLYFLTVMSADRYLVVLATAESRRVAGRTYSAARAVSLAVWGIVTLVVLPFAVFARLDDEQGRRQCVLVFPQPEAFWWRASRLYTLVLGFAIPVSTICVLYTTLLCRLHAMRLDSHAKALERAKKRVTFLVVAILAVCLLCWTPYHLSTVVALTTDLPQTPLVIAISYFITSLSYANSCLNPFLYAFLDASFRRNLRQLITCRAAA

[34] = molecular target: Vasopressin V1a receptor (Homo sapiens) (UniProt P37288); assay: RLU of AVPR1A at 1.0 µM in the […] PRESTO-Tango GPCRome screen
[35] = molecular target: Proto-oncogene Mas (Homo sapiens) (UniProt P04201); assay: RLU of MAS1 at 1.0 µM in the […] PRESTO-Tango GPCRome screen
Chain of Proto-oncogene Mas (Homo sapiens) (P04201 whole entry): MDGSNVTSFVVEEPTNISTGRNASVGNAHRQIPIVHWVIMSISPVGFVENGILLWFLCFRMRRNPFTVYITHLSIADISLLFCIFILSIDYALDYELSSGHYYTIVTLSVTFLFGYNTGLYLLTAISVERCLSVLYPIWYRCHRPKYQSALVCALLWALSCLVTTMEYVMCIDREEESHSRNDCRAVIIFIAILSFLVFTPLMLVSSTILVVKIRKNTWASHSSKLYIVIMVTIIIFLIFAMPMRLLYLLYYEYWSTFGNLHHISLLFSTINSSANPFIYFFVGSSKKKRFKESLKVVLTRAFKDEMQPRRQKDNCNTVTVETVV

RLU [1]: -838 | RLU [2]: -473 | RLU [3]: -3470 | RLU [4]: -560 | RLU [5]: 435000 | RLU [6]: 3970 | RLU [7]: 897 | RLU [8]: 1330 | RLU [9]: 1540 | RLU [10]: 2840 | RLU [11]: 559 | RLU [12]: -158 | RLU [13]: 2610 | RLU [14]: 4400 | RLU [15]: -311 | RLU [16]: 125 | RLU [17]: 5570 | RLU [18]: -80 | RLU [19]: -2840 | RLU [20]: -2940 | RLU [21]: -1790 | RLU [22]: 598 | RLU [23]: 233 | RLU [24]: 8750 | RLU [25]: -1210 | RLU [26]: 2420 | RLU [27]: 1690 | RLU [28]: -9110 | RLU [29]: -826 | RLU [30]: -4060 | RLU [31]: -158 | RLU [32]: 1160 | RLU [33]: 4940 | RLU [34]: 5670 | RLU [35]: -1360
SMILES: CCCCC(=O)N1CC2(C1)CN(c1ccccc1-c1nnn[nH]1)C2
